Measurements published in US20060154990A1, “Use of MEK inhibitors in treating abnormal cell growth” (AGOURON PHARMACEUTICALS, INC., priority 2004, published 2006).
Where “and” joins values, the source holds several entries; their conditions need not be identical. Identical values can stand only once.

Key:
[1] = Plasma concentrations associated with antitumor efficacy in mice; type: in vivo; settings: mouse, oral, C26 and ZR-75-1 tumor models in mice
[2] = test system: pERK in BxPC-3 tumors; assay: Tumor pERK inhibition and PK-PD in BxPC-3 xenograft; type: in vivo, mice; settings: BxPC-3 tumor, 25 mg/kg oral
[3] = test system: H23 NSCL xenograft; assay: Antitumor activity in H23 tumor model; type: in vivo, mice; settings: oral 25 mg/kg once a day for 14 days
[4] = test system: HT-29 colon xenograft; assay: Antitumor activity in HT-29 tumor model; type: in vivo, mice; settings: oral 25 mg/kg once a day for 14 days
[5] = Metabolites of [14C] Compound 1 in liver microsomes; type: in vitro ADME, dog; settings: [C-14] Compound 1 10 μM, 90 mins
Description: (§1) Incubations were performed in hepatocytes for 3 hours and liver microsomes for 1.5 hours and were stopped with the addition of methanol. HPLC, in conjuction with ionspray 3D iontrap mass spectrometry, and simultaneous radioactive monitoring were used to detect and identify the resulting metabolites.
(§2) This acid cleavage product is further metabolized to form hydroxylated (M 11, 16% in rat) and hydroxylated, defluorinated products (M 17, 19% in rat).

[6] = test system: panel of 27 kinases; assay: Specificity against a panel of 27 kinases; settings: 10 μM
[7] = Metabolites of [14C] Compound 1 in cryopreserved hepatocytes; type: in vitro ADME, human; settings: [C-14] Compound 1 10 μM, 180 mins
Description: as §1
Metabolite identification of radiolabeled Compound 1 was performed after incubation with rat, dog, monkey and human cryopreserved hepatocytes and liver microsomes. […] Besides glucuronidation, metabolites derived from other clearance pathways are also observed. For instance, M 15 (acid cleavage product) accounts for 11% of the total radioactivity in the human chromatogram.

[8] = test system: advanced cancer (breast, colon, NSCLC, melanoma); assay: Phase 1/2 clinical study: tumor response (RECIST); settings: for Clinical Response: individual patient
[9] = Maximum tolerated dose and lethality in mice
[10] = Metabolites of [14C] Compound 1 in liver microsomes; type: in vitro ADME, rat; settings: [C-14] Compound 1 10 μM, 90 mins
Description: as §1, §2

[11] = test system: Ki67 in tumor biopsies; assay: Immunohistochemical analysis of Ki67 in paired tumor biopsies; type: in vivo, human
Description: The same biopsy specimens, as analyzed for pERK. staining described in Example 10, were also assessed for the amount of Ki67 detectable by immunohistochemistry. The Ki67 marker is considered an indicator of cell proliferation and thus reduction in Ki67 staining levels may be correlated with anti-tumor activity of therapeutic agents. Tissue sections from the paraffin-embedded biopsy tissues were pretreated with Heat-induced Epitope Retrieval (in this case, microwaving for 3 minutes) prior to the Ki67 detection procedure. The antibody used was the mouse monoclonal Ki67/MM1 manufactured by Novocastra Laboratories, Ltd. (catalog number: NCL-Ki67-MM1). […] Scoring of staining intensity was performed in same manner as for pERK assay, with H-scores generated for each section. For Ki67, only 1 section was assayed for each biopsy specimen.

[12] = test system: ZR-75-1 (human tumor of unknown phenotype); assay: Antitumor activity in ZR-75-1 tumor model; type: in vivo, mice; settings: ZR-75-1 (unknown phenotype), oral 25 mg/kg once a day for 14 days
[13] = Metabolites of [14C] Compound 1 in liver microsomes; type: in vitro ADME, monkey; settings: [C-14] Compound 1 10 μM, 90 mins
Description: as §1, §2

## O=C(NOC[C@H](O)CO)c1ccc(F)c(F)c1Nc1ccc(I)cc1F [Compound 1, N-[(R)-2,3-dihydroxy-propoxy]-3,4-difluoro-2-(2-fluoro-4-iodo-phenylamino)-benzamide]
[1]; read-out: lowest plasma AUC(0-24) associated with meaningful in vivo antitumor efficacy
  AUC(0-t): 1180 to 1880 ng·h/mL
[1]; read-out: lowest plasma Cmax associated with meaningful in vivo antitumor efficacy
  Cmax: 260 to 428 ng/mL
[2]
  inhibition of pERK expression 24 hours after dosing: 23%
[3]
  CR (complete responder): 0/8
  PR (partial responder): 1/8
  T − C: 13.9 days
  Tumor Free: 0/8
[4]
  CR (complete responder): 0/10
  PR (partial responder): 0/10
  Tumor Free: 0/10
[5]
  % ROI Dog: 81.16%
[6]
  inhibition of panel of 27 kinases: completely refractory to inhibition
[7]
  % ROI Human: 15.68%
[8]; 2 mg BID, colon, cell wraps: stable disease
  Clinical Response: stable
[8]; 2 mg BID, melanoma, cell wraps: stable disease
  Clinical Response: stable
[8]; 4 mg BID, lung, cell wraps: stable disease
  Clinical Response: stable
[8]; 4 mg BID, melanoma, cell wraps: stable disease
  Clinical Response: stable
[8]; 15 mg BID, breast, cell wraps: stable disease
  Clinical Response: stable
[8]; 20 mg BID continuous, melanoma, cell wraps: stable disease
  Clinical Response: stable
[8]; 20 mg BID, melanoma, cell wraps: partial response
  Clinical Response: partial
[8]; 30 mg BID, melanoma, cell wraps: stable disease
  Clinical Response: stable
[8]; of 42 patients treated
  Patients with stable disease: 10
[8]; of 42 patients treated, melanoma
  Partial responses: 2
[9]; BALB/c and SCID, mouse, in vivo, po
  MTD at 14 days: 25 mg/kg/day and 25 mg/kg
[9]; mice, 25 mg/kg oral daily for 14 days
  deaths or weight loss: no deaths or weight loss
[9]; mice, IV regimen
  LD10: 100 mg/kg
[9]; mice, oral daily dosing of 50 mg/kg, sixth day of treatment
  Deaths: 5 out of 8
[10]
  % ROI Rat: 52.30%
[11]; baseline Ki67 scores above 20, 2 mg BID to 30 mg BID (N=13)
  average Ki67 decline: 49%
[11]; baseline Ki67 scores above 20, all dose groups (N=18)
  average Ki67 decline: 39%
[11]; tumor biopsies Day 15, 1 mg QD to 30 mg BID (N=22)
  average Ki67 decline: 31%
[11]; tumor biopsies Day 15, 2 mg BID to 30 mg BID (N=19)
  average Ki67 decline: 46%
[12]
  CR (complete responder): 7/8
  PR (partial responder): 1/8
  T − C: 24.2 days
  Tumor Free: 0/8
[13]
  % ROI Monkey: 71.38%
